Experimental findings from US20200281202A1 (priority 2017, published 2020) are described below.

The test system of experiment [1] is Plasmopara viticola. Put plainly: Plasmopara viticola test in grape, preventive. The format is in vivo. As to conditions: 50 ppm spray, grape seedlings inoculated one day after treatment; for pest or weed control at 50 ppm: Plasmopara viticola, read-out: control (disease severity) compared to the untreated check. The method, then: Example B: Plasmopara viticola Test in Grape
Compounds were dissolved in 2% DMSO/Acetone & then mixed with water to calibrated spray volume of 50 ml. This 50 ml spray solution was poured into the spray bottles for further applications.
To test the preventive activity of compounds, five week old healthy grape seedlings raised in the greenhouse were sprayed with active compound preparation at the stated application rates inside the spray cabinets using hallow-cone nozzles. One day after treatment, the plants were inoculated with inoculum suspension (Cold sterile water) containing 6×10^6 Plasmopara viticola inoculum. The inoculated plants were then kept in greenhouse chamber at 18-21° C. temperature and 95-100% relative humidity for disease expression. Compounds
A visual assessment of compound's performance was carried by rating the disease severity (0-100% scale) on treated plants on 3, 7, 10 and 15 days after application. Efficacy (% control) of the compounds was calculated by comparing the disease rating in the treatment with untreated control. The sprayed plants were also assessed for compound's phytotoxic effects by recording symptoms like necrosis, chlorosis and stunting.

Experiment [2] has as its system Phytophthora infestans. Put plainly: microbe, parasite or virus in culture. As to conditions: for inhibition of growth at 30 ppm: Phytophthora infestans, 168 h, read-out: control (radial growth) compared to the untreated check; for control (radial growth) compared to the untreated check: 30 ppm in Rye Agar medium, seven days at 18° C. The format is cell-based.
In experiment [3] the test system is Phytophthora infestans. The experiment in a line: whole plant or invertebrate. As to conditions: for pest or weed control at 50 ppm: Phytophthora infestans, in Solanum lycopersicum, read-out: control (disease severity) compared to the untreated check; for control (disease severity) compared to the untreated check: 50 ppm spray, preventive, Tomato plants inoculated one day after treatment. The format is in vivo.

`CS(=O)(=O)Oc1cccc(Cl)c1C1CC(c2csc(C3CCN(C(=O)COc4ncc(Cl)cc4C(F)(F)F)CC3)n2)=NO1` (stereo not drawn) [Compound 32, 3-chloro-2-(3-(2-(1-(2-((5-chloro-3-(trifluoromethyl)pyridin-2-yl)oxy)acetyl)piperidin-4-yl)thiazol-4-yl)-4,5-dihydroisoxazol-5-yl)phenyl methanesulfonate]: the pest or weed control at 50 ppm in experiment [1] and in experiment [3] was 90% each time. In experiment [2], the inhibition of growth at 30 ppm turned out to be 70%.

On to `CS(=O)(=O)Oc1cccc(Cl)c1C1CC(c2csc(C3CCN(C(=O)COc4ncc(Br)cc4C(F)(F)F)CC3)n2)=NO1` (stereo not drawn) [Compound 36], for which the pest or weed control at 50 ppm in experiment [1] and in experiment [3] was 90% throughout. In addition, the inhibition of growth at 30 ppm in experiment [2] came out at 70%.

Regarding `O=C(COc1ncc(Br)cc1C(F)(F)F)N1CCC(c2nc(C3=NOC(c4c(Cl)cc(Cl)cc4Cl)C3)cs2)CC1` (stereo not drawn) [Compound 38], the “control (disease severity) compared to the untreated check” value in experiment [1] and in experiment [3] was 90% each time. Besides, in experiment [2], the “control (radial growth) compared to the untreated check” value is 70%.

As for `O=C(COc1ncccc1C(F)(F)F)N1CCC(c2nc(C3=NOC(c4ccccc4F)C3)cs2)CC1` (stereo not drawn) [Compound 66, 1-(4-(4-(5-(2-fluorophenyl)-4,5-dihydroisoxazol-3-yl)thiazol-2-yl)piperidin-1-yl)-2-((3-(trifluoromethyl)pyridin-2-yl)oxy)ethan-1-one], the pest or weed control at 50 ppm in experiment [1] and in experiment [3] was 90% throughout. The inhibition of growth at 30 ppm in experiment [2] was determined as 70%.

Turning to `O=C(COc1ncc(Br)cc1C(F)(F)F)N1CCC(c2nc(C3=NOC(c4c(Cl)cccc4Cl)C3)cs2)CC1` (stereo not drawn) [Compound 35, 2-((5-bromo-3-(trifluoromethyl)pyridin-2-yl)oxy)-1-(4-(4-(5-(2,6-dichlorophenyl)-4,5-dihydroisoxazol-3-yl)thiazol-2-yl)piperidin-1-yl)ethan-1-one], the pest or weed control at 50 ppm in experiment [1] and in experiment [3] was 90% each time. Besides, the inhibition of growth at 30 ppm in experiment [2] was 70%.

Regarding `Cn1nc(C(F)(F)F)cc1OCC(=O)N1CCC(c2nc(C3=NOC(c4c(Cl)cc(Cl)cc4Cl)C3)cs2)CC1` (stereo not drawn) [Compound 10, 2-((1-methyl-3-(trifluoromethyl)-1H-pyrazol-5-yl)oxy)-1-(4-(4-(5-(2,4,6-trichlorophenyl)-4,5-dihydroisoxazol-3-yl)thiazol-2-yl)piperidin-1-yl)ethan-1-one], the pest or weed control at 50 ppm in experiment [1] and in experiment [3] was 90% in each case. Further, the inhibition of growth at 30 ppm in experiment [2] was 70%.

As for `O=C(COc1ncccc1C(F)(F)F)N1CCC(c2nc(C3=NOC(c4c(Cl)cccc4Cl)C3)cs2)CC1` (stereo not drawn) [Compound 27], the pest or weed control at 50 ppm in experiment [1] and in experiment [3] was 90% throughout. In experiment [2], the inhibition of growth at 30 ppm came out at 70%.

As for `O=C(COc1ncccc1C(F)(F)F)N1CCC(c2nc(C3=NOC(c4c(F)cccc4F)C3)cs2)CC1` (stereo not drawn) [Compound 29, 1-(4-(4-(5-(2,6-difluorophenyl)-4,5-dihydroisoxazol-3-yl)thiazol-2-yl)piperidin-1-yl)-2-((3-(trifluoromethyl)pyridin-2-yl)oxy) ethan-1-one], the pest or weed control at 50 ppm in experiment [1] and in experiment [3] was 90% in each case. Moreover, the inhibition of growth at 30 ppm in experiment [2] amounted to 70%.

Turning to `Cc1ccc(C(F)(F)F)c(OCC(=O)N2CCC(c3nc(C4=NOC(c5c(Cl)cccc5Cl)C4)cs3)CC2)n1` (stereo not drawn) [Compound 41, 1-(4-(4-(5-(2,6-dichlorophenyl)-4,5-dihydroisoxazol-3-yl)thiazol-2-yl)piperidin-1-yl)-2-((6-methyl-3-(trifluoromethyl)pyridin-2-yl)oxy)ethan-1-one], the pest or weed control at 50 ppm in experiment [1] and in experiment [3] was 90% each time. Besides, the inhibition of growth at 30 ppm in experiment [2] is 70%.

Regarding `O=C(CSc1ncccc1C(F)(F)F)N1CCC(c2nc(C3=NOC(c4c(F)cccc4F)C3)cs2)CC1` (stereo not drawn) [Compound 62, 1-(4-(4-(5-(2,6-difluorophenyl)-4,5-dihydroisoxazol-3-yl)thiazol-2-yl)piperidin-1-yl)-2-((3-(trifluoromethyl)pyridin-2-yl)thio)ethan-1-one], the pest or weed control at 50 ppm in experiment [1] and in experiment [3] was 90% each time. In addition, the inhibition of growth at 30 ppm in experiment [2] came to 70%.

As to `Cc1ccc(C(F)(F)F)c(OCC(=O)N2CCC(c3nc(C4=NOC(c5c(Cl)cccc5OS(C)(=O)=O)C4)cs3)CC2)n1` (stereo not drawn) [Compound 42, 3-chloro-2-(3-(2-(1-(2-((6-methyl-3-(trifluoromethyl)pyridin-2-yl)oxy)acetyl)piperidin-4-yl)thiazol-4-yl)-4,5-dihydroisoxazol-5-yl)phenyl methanesulfonate], the pest or weed control at 50 ppm in experiment [1] and in experiment [3] was 90% throughout. Besides, in experiment [2], the inhibition of growth at 30 ppm is 70%.

As to `Cc1ccc(C(F)(F)F)c(OCC(=O)N2CCC(c3nc(C4=NOC(c5c(Cl)cc(Cl)cc5Cl)C4)cs3)CC2)n1` (stereo not drawn) [Compound 39, 2-((6-methyl-3-(trifluoromethyl)pyridin-2-yl)oxy)-1-(4-(4-(5-(2,4,6-trichlorophenyl)-4,5-dihydroisoxazol-3-yl)thiazol-2-yl)piperidin-1-yl)ethan-1-one], the pest or weed control at 50 ppm in experiment [1] and in experiment [3] was 90% each time. Besides, the inhibition of growth at 30 ppm in experiment [2] was found to be 70%.

On to `Cn1nc(OCC(=O)N2CCC(c3nc(C4=NOC(c5c(Cl)cccc5Cl)C4)cs3)CC2)cc1C(F)(F)F` (stereo not drawn) [Compound 15, 1-(4-(4-(5-(2,6-dichlorophenyl)-4,5-dihydroisoxazol-3-yl)thiazol-2-yl)piperidin-1-yl)-2-((1-methyl-5-(trifluoromethyl)-1H-pyrazol-3-yl)oxy)ethan-1-one], for which the pest or weed control at 50 ppm in experiment [1] and in experiment [3] was 90% each time. Besides, the inhibition of growth at 30 ppm in experiment [2] is 70%.

As for `CS(=O)(=O)Oc1cccc(Cl)c1C1CC(c2csc(C3CCN(C(=O)CSc4ncccc4C(F)(F)F)CC3)n2)=NO1` (stereo not drawn) [Compound 61, 3-chloro-2-(3-(2-(1-(2-((3-(trifluoromethyl)pyridin-2-yl)thio)acetyl)piperidin-4-yl)thiazol-4-yl)-4,5-dihydroisoxazol-5-yl)phenyl methanesulfonate], the pest or weed control at 50 ppm in experiment [1] and in experiment [3] was 90% each time. In addition, the inhibition of growth at 30 ppm in experiment [2] amounted to 70%.

On to `O=C(COc1ncc(Cl)cc1C(F)(F)F)N1CCC(c2nc(C3=NOC(c4c(Cl)cccc4Cl)C3)cs2)CC1` (stereo not drawn) [Compound 31, 2-((5-chloro-3-(trifluoromethyl)pyridin-2-yl)oxy)-1-(4-(4-(5-(2,6-dichlorophenyl)-4,5-dihydroisoxazol-3-yl)thiazol-2-yl)piperidin-1-yl)ethan-1-one], for which the pest or weed control at 50 ppm in experiment [1] and in experiment [3] was 90% throughout. Further, the inhibition of growth at 30 ppm in experiment [2] is 70%.

Consider `O=C(COc1ncccc1C(F)F)N1CCC(c2nc(C3=NOC(c4c(Cl)cc(Cl)cc4Cl)C3)cs2)CC1` (stereo not drawn) [Compound 87], for which the pest or weed control at 50 ppm in experiment [1] and in experiment [3] was 90% throughout. Moreover, the inhibition of growth at 30 ppm in experiment [2] is 70%.

Consider `Cc1ccc(C(F)(F)F)c(OCC(=O)N2CCC(c3nc(C4=NOC(c5c(F)cccc5F)C4)cs3)CC2)n1` (stereo not drawn) [Compound 40, 1-(4-(4-(5-(2,6-difluorophenyl)-4,5-dihydroisoxazol-3-yl)thiazol-2-yl)piperidin-1-yl)-2-((6-methyl-3-(trifluoromethyl)pyridin-2-yl)oxy)ethan-1-one], for which, in experiment [2], the inhibition of growth at 30 ppm came to 70%. Moreover, the pest or weed control at 50 ppm in experiment [3] was 90%.

Take `CS(=O)(=O)Oc1cccc(Cl)c1C1CC(c2csc(C3CCN(C(=O)COc4ncccc4C(F)(F)F)CC3)n2)=NO1` (stereo not drawn) [Compound 28, 3-chloro-2-(3-(2-(1-(2-((3-(trifluoromethyl)pyridin-2-yl)oxy)acetyl)piperidin-4-yl)thiazol-4-yl)-4,5-dihydroisoxazol-5-yl)phenyl methanesulfonate]: the inhibition of growth at 30 ppm in experiment [2] was 70%. Moreover, the pest or weed control at 50 ppm in experiment [3] worked out at 90%.

With `COc1ccc(C2CC(c3csc(C4CCN(C(=O)COc5ncc(Cl)cc5C(F)(F)F)CC4)n3)=NO2)cc1` (stereo not drawn) [Compound 67], the “control (radial growth) compared to the untreated check” value in experiment [2] is 70%. For the same compound, the “control (disease severity) compared to the untreated check” value in experiment [3] came out at 90%.

On to `Cc1cnc(OCC(=O)N2CCC(c3nc(C4=NOC(c5c(Cl)cc(Cl)cc5Cl)C4)cs3)CC2)c(C(F)(F)F)c1` (stereo not drawn) [Compound 83, 2-((5-methyl-3-(trifluoromethyl)pyridin-2-yl)oxy)-1-(4-(4-(5-(2,4,6-trichlorophenyl)-4,5-dihydroisoxazol-3-yl)thiazol-2-yl)piperidin-1-yl)ethan-1-one], for which, in experiment [2], the inhibition of growth at 30 ppm is 70%.

In the case of `Cn1nc(OCC(=O)N2CCC(c3nc(C4=NOC(c5c(F)cccc5F)C4)cs3)CC2)cc1C(F)(F)F` (stereo not drawn) [Compound 20, 1-(4-(4-(5-(2,6-difluorophenyl)-4,5-dihydroisoxazol-3-yl)thiazol-2-yl)piperidin-1-yl)-2-((1-methyl-5-(trifluoromethyl)-1H-pyrazol-3-yl)oxy) ethan-1-one], in experiment [2], the inhibition of growth at 30 ppm amounted to 70%.

`CN(C)C(N(CC(=O)N1CCC(c2nc(C3=NOC(c4c(F)cccc4F)C3)cs2)CC1)c1ccc(C(F)(F)F)cn1)=[N+](C)C` (stereo not drawn) [Compound 69]: the inhibition of growth at 30 ppm in experiment [2] came to 70%.
